Assay [1] deals with IL-1β production in murine peritoneal macrophages (PECs). The assay can be described thus: IL-1β secretion (ELISA) by primed, ATP-pulsed peritoneal macrophages (PECs). It counts as cell-based, mouse. How it is done: FIGS. 1A-1J illustrate the finding that adenosine stimulates IL-1β production in NLRP3 inflammasome-dependent manner. Murine peritoneal macrophages (PECs) were obtained from wild type (WT) mice (FIGS. 1A-1D, 1F-1I), Il1r−/− (FIG. 1E) or Nlrp3−/−, ASC−/−, P2xr7−/−, or Caspase-1−/− mice (FIG. 1J) and were primed with LPS for 16 hours. FIG. 1A: This was followed by treatment for 1 hour with adenosine (Ad, 100 μM), adenosine deaminase inhibitor (EHNA, 10 μM), adenosine deaminase (ADA, 10 U ml^−1), ATP diphosphohydrolase (Apyrase, 10 U ml^−1), or erythro-9-(2-hydroxy-3-nonyl) adenine (EHNA, 10 μM) (FIGS. 1B, 1F-1J)). Pan adenosine agonist (NECA, 1 μM, 10 μM) (FIGS. 1C, 1E), or (FIGS. 1D, 1I) by NECA for 1 and 6 hours, and were then pulsed with ATP for 20 min. Enzyme-linked immunosobent assay (ELISA) of IL-1β, TNF-α, IL-10 and IFN-γ secretion were measured in cell supernatants after pulsing with ATP for 5 hours (FIGS. 1A, 1C-1E, 1J) or indicated time-course (FIGS. 1B, 1G-1I). LDH assay was performed after pulsing with ATP as indicated time-course (FIG. 1F). Data are expressed as the mean±SD from at least three independent experiments. *p<0.05 determined by Student's t-test.
C57BL/6 mice were purchased from the National Cancer Institute. ASC−/−, Caspase-1−/−, Nlrp3−/− and P2xr7−/− mice have been described (Rock et al., 2010, Annu Rev Immunol. 28:321-42). A2ora2a flox/flox mice and LysMcre mice were purchased from Jackson Laboratories. HIF-1a flox/flox mice were kindly provided by Dr. Ruslan M Medzhitov (Yale University). 7- to 12-week-old males with a variety of genetic manipulations were used in most experiments. The number of mice in each experimental group was chosen based on previous experience with these experimental models. Mouse peritoneal macrophages (PECs) were isolated by peritoneal lavage 3 days after intraperitoneal injection of 4% thioglycollate solution (B2551, Fluka,). Cells were plated at the density of 3×10^6 cells in 12-well dishes and non-adherent cells were removed after 3 h. Cells primed overnight with 100 ng/ml LPS or 10 ng/ml Pam3CSK4 were treated with various chemicals and followed stimulation. Cells were cultured in DMEM medium complemented with 10% FBS, penicillin/streptomycin and L-glutamine. Mouse bone marrow derived macrophages were isolated from bone marrow cells, and were differentiated for 7 days in complete RPMI-1640 medium supplemented with 2 mM L-glutamine, 100 U/ml penicillin, 100 μg/ml streptomycin, 50 μM 2-mercaptoethanol (all from Invitrogen), 10% heat-inactivated FBS and 20 ng/ml M-CSF (PeproTech). Kupffer cells (KC) were isolated by the density gradient separation of Optiprep (Sigma), and then plates were gently washed and media was replenished after seeding cells for 2 hours to raise KC purity.
(§1) Primed PECs were both pulsed for 20 min with 5 mM ATP or 10 μM nigericin, and left untreated until culture supernatants were collected. Secretion of IL-1β was determined by enzyme-linked immunoabsorbent assay (ELISA; R&D Systems).

Assay [2] has the same test system. The assay is described as above. The assay is classed as cell-based, mouse. As to conditions: LPS and monosodium urate (MSU) crystals.
Assay [3] relates to wild type C57BL/6 mice treated with LPS. Description: LPS/D-galactosamine liver injury with adenosine agonist. The assay is classed as in vivo, mouse. As to the method:
FIGS. 14A-14F illustrate increase in serum ALT and changes in liver gene expression in mice treated with LPS in the presence or absence of adenosine agonist. Wild type C57BL/6 mice were injected intraperitoneally with LPS (1 μg/mouse). 16 hours later mice received NECA (2.5 mg kg^−1 body weight) and D-galactosamine (500 mg kg^−1) by IP for 2 hours following liver tissue and serum collection. Serum ALT was determined (FIG. 14A), and the gene expression of Il1β (FIG. 14B), Il6 (FIG. 14C), Hif1α (FIG. 14D), Nlrp3 (FIG. 14E), and tnfα (FIG. 14F) was quantified by real-time PCR using each specific gene primer set as listed. Data are expressed as the mean±SD from 6 mice in each treatment group. *p<0.05 determined by Student's t-test.
The results recited herein show a requirement for adenosine signaling via the A2A receptor for maximal production of IL-1β by macrophages in vitro. With tissue inflammation and injury extracellular adenosine levels are known to increase by a variety of means from the basal levels below 1 μM to levels up to […]. It was tested whether A2A receptor driven inflammasome activity was relevant in vivo; two models of liver injury was used: one acute LPS driven model where liver injury was assessed in 6 hours after LPS, and a second model of sterile injury by a toxic metabolic insult to the liver by thioacetamide (TAA) in which injury was examined at days 1, 2 and 7. A2AR-cKO mice that specifically delete Adora2a gene in macrophages were used. Liver immune populations were intact in these mice (FIG. 13). […] To test the effect of increasing adenosine signaling in vivo, wild-type mice were treated with LPS in the presence or absence of the adenosine agonist NECA.

For assay [4], the system named is IL-1β production in liver Kupffer cells. The assay can be described thus: IL-1β secretion by LPS/ATP-stimulated Kupffer cells. It counts as cell-based, mouse. The note with it: LPS and ATP. How it is done:
FIGS. 6A-6B illustrate the finding that bone marrow macrophages and liver Kupffer cells increase IL-1β in response to adenosine signaling. FIG. 6A: Murine bone marrow derived macrophages (BMDM) were primed with LPS for 16 hours, treated with NECA (10 μM) for 1 hour, and then pulsed with ATP. FIG. 6b: Primary murine liver Kupffer cells were primed with LPS for 16 hours, treated with NECA (10 μM) for 1 hour, and then pulsed with ATP. IL-1β secretion was measured in supernatants 5 hours after pulsing with ATP. Data are expressed as the mean±SD from at least three independent experiments. *p<0.05 determined by Student's t-test.
C57BL/6 mice were purchased from the National Cancer Institute. ASC−/−, Caspase-1−/−, Nlrp3−/− and P2xr7−/− mice have been described (Rock et al., 2010, Annu Rev Immunol. 28:321-42). A2ora2a flox/flox mice and LysMcre mice were purchased from Jackson Laboratories. HIF-1a flox/flox mice were kindly provided by Dr. Ruslan M Medzhitov (Yale University). 7- to 12-week-old males with a variety of genetic manipulations were used in most experiments. […]
as §1

Setting [5] is: LPS-primed PECs pulsed with ATP.
Where [6] appears, read: PECs from A2A receptor deficient cells.

Each structure is given as a SMILES string. “Also recorded” adds a separate entry of the source.

For `CCNC(=O)[C@H]1O[C@@H](n2cnc3c(N)nc(NCCc4ccc(CCC(=O)O)cc4)nc32)[C@H](O)[C@@H]1O` [CGS21680], the IL-1β production result in assay [1] (setting [5]) was “increase IL-1β production to a comparable degree to NECA and EHNA”; in assay [1] (setting [6]) it was “not increased”.
Take `CCNC(=O)[C@H]1O[C@@H](n2cnc3c(N)ncnc32)[C@H](O)[C@@H]1O` [NECA, 5′-(N-ethylcarboxamido) adenosine]: the IL-1β production result in assay [2] was “increased”. For the same molecule, in assay [3], the “serum ALT” value was “significant elevation”, the “whole liver transcript of Hif1a” value was “significant elevation”, the “whole liver transcript of Il1b” value was “significant elevation” and the “whole liver transcript of Il6” value was “significant elevation”. Besides, in assay [3], the “whole liver transcript of Nlrp3” value is on record as “significant elevation” and the “whole liver transcript of tnfa” value is recorded as “reduction”. In addition, the “IL-1β production in wild-type vs IL-1 receptor deficient macrophages” value in assay [1] (LPS + ATP) is recorded as “to a similar degree”. The IL-1β production entry in assay [1] (setting [5]) is given as “stimulated an increase; also recorded: increased”. In assay [1] (setting [6]), the IL-1β production entry was “not increased”. Besides, the “IL-1β production by LPS and ATP” value in assay [1] (macrophages lacking caspase-1, NLRP3, ASC or P2x7 receptor) is listed as “did not result in significant production of IL-1β”. For the same molecule, the IL-1β production result in assay [4] is “significantly increased”.

Values taken from patent US10624917B2, “Compositions and methods useful for treating or preventing liver diseases or disorders, and promoting weight loss” (YALE UNIVERSITY, priority 2014, dated 2020).
